The target of assay [1] is Serine/threonine-protein kinase/endoribonuclease IRE1 (Homo sapiens) (UniProt O75460). Description: Inhibition of human recombinant IRE1 at 40 nM in presence of ATP by radiometric assay relative to control.
Assay [2] addresses T1, Serine/threonine-protein kinase 17A (Homo sapiens) (UniProt Q9UEE5).
T1 sequence (whole entry): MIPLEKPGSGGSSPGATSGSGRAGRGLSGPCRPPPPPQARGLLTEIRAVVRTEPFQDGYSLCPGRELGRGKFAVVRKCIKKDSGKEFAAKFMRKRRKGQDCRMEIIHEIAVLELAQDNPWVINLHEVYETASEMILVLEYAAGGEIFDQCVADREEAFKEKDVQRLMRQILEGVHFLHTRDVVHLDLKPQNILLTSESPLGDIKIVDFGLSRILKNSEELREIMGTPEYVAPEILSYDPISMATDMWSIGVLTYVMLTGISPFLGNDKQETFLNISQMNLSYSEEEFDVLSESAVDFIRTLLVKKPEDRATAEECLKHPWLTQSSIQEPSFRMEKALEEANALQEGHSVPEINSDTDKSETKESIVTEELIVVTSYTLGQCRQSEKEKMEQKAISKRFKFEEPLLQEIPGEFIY
Kind of assay: Inhibition of human recombinant DRAK1 at 40 nM in presence of ATP by radiometric assay relative to control.

Assay [3] concerns the target Platelet-derived growth factor receptor alpha (Homo sapiens) (UniProt P16234). Kind of assay: Inhibition of human recombinant PDGFRa at 40 nM in presence of ATP by radiometric assay relative to control.
Assay [4] deals with T2, Serine/threonine-protein kinase haspin (Homo sapiens) (UniProt Q8TF76).
T2 sequence (whole entry): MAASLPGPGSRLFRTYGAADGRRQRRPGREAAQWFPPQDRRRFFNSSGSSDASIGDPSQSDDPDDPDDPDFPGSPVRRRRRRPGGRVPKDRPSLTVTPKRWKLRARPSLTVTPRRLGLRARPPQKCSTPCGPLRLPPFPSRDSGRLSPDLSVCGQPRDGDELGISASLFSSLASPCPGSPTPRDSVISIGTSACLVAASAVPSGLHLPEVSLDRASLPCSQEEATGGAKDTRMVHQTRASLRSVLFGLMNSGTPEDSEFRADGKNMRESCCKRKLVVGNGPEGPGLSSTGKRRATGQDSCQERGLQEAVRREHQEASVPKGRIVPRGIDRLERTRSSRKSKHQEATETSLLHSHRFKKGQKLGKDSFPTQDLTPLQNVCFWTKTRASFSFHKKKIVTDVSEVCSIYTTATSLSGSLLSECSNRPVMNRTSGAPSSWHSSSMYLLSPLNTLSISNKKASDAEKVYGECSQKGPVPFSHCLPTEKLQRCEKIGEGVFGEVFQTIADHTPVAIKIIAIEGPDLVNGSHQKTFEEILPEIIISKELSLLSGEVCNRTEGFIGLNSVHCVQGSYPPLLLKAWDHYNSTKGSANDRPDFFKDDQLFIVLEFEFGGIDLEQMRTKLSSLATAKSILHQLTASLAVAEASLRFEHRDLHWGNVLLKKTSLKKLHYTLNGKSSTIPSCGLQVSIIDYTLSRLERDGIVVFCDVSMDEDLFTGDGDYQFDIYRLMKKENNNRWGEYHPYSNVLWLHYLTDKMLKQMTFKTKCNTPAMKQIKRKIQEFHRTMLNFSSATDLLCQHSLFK
Description: Inhibition of human recombinant Haspin at 40 nM related to control ULK1.

The target in assay [5] is Ephrin type-A receptor 5 (Homo sapiens) (UniProt P54756). Description: Inhibition of human recombinant EphA5 at 500 nM in presence of ATP by radiometric assay relative to control.
Sequence of Ephrin type-A receptor 5 (Homo sapiens) (P54756 whole entry): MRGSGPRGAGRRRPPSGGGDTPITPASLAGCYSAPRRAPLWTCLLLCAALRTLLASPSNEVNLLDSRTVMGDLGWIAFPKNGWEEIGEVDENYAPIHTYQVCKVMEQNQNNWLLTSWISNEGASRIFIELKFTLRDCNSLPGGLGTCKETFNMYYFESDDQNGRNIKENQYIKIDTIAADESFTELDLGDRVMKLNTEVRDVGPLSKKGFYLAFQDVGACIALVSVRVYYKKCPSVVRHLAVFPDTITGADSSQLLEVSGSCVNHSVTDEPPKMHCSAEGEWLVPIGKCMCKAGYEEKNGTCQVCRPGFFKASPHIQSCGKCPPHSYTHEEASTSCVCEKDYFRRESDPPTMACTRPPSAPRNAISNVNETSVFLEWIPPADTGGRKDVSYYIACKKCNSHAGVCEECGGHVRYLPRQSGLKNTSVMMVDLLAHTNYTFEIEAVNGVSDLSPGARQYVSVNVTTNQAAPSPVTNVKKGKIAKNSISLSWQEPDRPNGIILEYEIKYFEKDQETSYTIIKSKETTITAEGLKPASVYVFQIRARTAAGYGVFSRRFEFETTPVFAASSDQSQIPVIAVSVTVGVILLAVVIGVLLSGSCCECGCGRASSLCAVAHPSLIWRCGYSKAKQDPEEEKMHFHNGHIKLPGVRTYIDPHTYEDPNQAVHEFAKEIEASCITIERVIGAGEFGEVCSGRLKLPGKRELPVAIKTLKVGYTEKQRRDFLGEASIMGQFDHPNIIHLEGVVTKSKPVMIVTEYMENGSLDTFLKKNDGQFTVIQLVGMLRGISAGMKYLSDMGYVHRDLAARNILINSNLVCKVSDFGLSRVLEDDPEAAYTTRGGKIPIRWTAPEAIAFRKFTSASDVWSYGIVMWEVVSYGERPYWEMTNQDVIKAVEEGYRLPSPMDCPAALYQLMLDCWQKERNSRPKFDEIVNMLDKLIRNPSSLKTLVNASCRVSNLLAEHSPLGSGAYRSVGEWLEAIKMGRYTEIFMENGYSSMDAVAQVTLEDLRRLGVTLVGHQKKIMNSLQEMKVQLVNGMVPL
The target of assay [6] is Casein kinase II subunit alpha (Homo sapiens) (UniProt P68400). Kind of assay: Inhibition of human recombinant CK2a1 at 500 nM related to control ULK1.
Sequence of Casein kinase II subunit alpha (Homo sapiens) (P68400 whole entry, looked up): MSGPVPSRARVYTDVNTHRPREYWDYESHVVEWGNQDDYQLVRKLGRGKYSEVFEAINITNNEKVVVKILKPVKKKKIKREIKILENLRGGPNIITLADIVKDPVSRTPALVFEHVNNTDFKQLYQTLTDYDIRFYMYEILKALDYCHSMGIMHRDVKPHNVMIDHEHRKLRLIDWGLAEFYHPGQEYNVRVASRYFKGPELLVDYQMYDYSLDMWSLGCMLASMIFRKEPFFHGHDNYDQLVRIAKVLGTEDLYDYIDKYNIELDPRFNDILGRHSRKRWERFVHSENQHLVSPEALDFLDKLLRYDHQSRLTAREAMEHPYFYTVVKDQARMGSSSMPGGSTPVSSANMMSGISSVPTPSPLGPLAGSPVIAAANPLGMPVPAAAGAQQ
The target in assay [7] is T3, cGMP-dependent protein kinase 1 (Homo sapiens) (UniProt Q13976).
T3 sequence (whole entry): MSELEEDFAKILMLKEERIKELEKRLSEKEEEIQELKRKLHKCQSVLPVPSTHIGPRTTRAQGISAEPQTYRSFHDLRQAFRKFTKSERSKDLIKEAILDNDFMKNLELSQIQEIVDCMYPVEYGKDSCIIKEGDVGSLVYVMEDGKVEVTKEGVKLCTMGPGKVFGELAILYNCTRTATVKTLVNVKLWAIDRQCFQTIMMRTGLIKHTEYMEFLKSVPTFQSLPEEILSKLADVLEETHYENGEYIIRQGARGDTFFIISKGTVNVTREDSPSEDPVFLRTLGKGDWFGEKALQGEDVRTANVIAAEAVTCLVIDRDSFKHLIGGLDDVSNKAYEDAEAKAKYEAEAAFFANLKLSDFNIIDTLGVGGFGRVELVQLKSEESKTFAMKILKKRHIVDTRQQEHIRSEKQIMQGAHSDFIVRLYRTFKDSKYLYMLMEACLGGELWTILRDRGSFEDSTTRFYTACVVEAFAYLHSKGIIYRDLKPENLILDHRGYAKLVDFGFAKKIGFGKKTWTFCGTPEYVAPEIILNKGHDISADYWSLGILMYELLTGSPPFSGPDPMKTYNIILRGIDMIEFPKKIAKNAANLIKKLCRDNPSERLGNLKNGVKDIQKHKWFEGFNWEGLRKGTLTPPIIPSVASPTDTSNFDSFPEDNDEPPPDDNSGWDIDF
Kind of assay: Inhibition of human recombinant PKG1 at 500 nM related to control ULK1.

The target of assay [8] is Serine/threonine-protein kinase MAK (Homo sapiens) (UniProt P20794). Description: Inhibition of human recombinant MAK at 500 nM in presence of ATP by radiometric assay relative to control.
Sequence of Serine/threonine-protein kinase MAK (Homo sapiens) (P20794 whole entry, looked up): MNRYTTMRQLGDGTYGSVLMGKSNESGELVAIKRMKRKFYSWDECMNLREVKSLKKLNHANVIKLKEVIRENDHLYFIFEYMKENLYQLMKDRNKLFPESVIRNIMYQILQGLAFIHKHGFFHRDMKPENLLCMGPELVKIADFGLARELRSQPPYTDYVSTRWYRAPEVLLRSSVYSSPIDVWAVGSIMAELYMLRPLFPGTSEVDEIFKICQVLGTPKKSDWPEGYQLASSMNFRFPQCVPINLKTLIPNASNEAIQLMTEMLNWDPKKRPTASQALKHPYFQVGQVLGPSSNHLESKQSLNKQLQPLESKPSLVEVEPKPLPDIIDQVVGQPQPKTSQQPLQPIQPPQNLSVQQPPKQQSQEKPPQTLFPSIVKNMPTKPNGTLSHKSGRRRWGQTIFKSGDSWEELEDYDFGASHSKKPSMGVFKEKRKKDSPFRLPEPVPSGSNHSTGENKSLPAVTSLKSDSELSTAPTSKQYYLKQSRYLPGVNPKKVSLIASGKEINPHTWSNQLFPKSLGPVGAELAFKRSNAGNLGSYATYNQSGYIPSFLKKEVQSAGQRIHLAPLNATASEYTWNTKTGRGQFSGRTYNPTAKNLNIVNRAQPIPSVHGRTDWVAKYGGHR
For assay [9], the target named is Casein kinase II subunit alpha' (Homo sapiens) (UniProt P19784). Description: Inhibition of human recombinant CK2a2 at 500 nM related to control ULK1.
Sequence of Casein kinase II subunit alpha' (Homo sapiens) (P19784 whole entry, looked up): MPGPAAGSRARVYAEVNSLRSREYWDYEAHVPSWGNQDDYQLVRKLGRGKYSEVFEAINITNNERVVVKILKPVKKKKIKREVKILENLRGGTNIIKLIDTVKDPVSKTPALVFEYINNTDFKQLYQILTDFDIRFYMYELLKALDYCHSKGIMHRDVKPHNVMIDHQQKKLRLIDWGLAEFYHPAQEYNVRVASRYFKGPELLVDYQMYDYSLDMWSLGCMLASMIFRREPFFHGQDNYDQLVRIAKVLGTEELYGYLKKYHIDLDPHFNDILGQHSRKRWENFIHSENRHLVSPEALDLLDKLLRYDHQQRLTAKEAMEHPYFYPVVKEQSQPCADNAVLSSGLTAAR
In assay [10] the target is Death-associated protein kinase 3 (Homo sapiens) (UniProt O43293). Kind of assay: Inhibition of human recombinant DAPK3 at 15 nM related to control ULK1.
Sequence of Death-associated protein kinase 3 (Homo sapiens) (O43293 whole entry, looked up): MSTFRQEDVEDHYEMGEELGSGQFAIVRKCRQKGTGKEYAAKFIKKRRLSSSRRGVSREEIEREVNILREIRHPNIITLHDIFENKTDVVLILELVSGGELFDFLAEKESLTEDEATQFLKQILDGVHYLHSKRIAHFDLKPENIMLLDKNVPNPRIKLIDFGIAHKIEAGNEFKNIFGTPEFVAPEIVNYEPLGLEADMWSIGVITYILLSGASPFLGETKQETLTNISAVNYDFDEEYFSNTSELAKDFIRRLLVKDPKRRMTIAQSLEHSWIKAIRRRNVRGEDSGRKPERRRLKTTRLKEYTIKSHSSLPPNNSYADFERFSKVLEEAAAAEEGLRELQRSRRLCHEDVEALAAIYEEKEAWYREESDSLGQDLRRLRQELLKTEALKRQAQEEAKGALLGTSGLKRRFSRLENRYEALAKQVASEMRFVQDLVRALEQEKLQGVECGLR
Assay [11] deals with Ephrin type-A receptor 2 (Homo sapiens) (UniProt P29317). Kind of assay: Inhibition of human recombinant EphA2 at 15 nM related to control ULK1.
Sequence of Ephrin type-A receptor 2 (Homo sapiens) (P29317 whole entry): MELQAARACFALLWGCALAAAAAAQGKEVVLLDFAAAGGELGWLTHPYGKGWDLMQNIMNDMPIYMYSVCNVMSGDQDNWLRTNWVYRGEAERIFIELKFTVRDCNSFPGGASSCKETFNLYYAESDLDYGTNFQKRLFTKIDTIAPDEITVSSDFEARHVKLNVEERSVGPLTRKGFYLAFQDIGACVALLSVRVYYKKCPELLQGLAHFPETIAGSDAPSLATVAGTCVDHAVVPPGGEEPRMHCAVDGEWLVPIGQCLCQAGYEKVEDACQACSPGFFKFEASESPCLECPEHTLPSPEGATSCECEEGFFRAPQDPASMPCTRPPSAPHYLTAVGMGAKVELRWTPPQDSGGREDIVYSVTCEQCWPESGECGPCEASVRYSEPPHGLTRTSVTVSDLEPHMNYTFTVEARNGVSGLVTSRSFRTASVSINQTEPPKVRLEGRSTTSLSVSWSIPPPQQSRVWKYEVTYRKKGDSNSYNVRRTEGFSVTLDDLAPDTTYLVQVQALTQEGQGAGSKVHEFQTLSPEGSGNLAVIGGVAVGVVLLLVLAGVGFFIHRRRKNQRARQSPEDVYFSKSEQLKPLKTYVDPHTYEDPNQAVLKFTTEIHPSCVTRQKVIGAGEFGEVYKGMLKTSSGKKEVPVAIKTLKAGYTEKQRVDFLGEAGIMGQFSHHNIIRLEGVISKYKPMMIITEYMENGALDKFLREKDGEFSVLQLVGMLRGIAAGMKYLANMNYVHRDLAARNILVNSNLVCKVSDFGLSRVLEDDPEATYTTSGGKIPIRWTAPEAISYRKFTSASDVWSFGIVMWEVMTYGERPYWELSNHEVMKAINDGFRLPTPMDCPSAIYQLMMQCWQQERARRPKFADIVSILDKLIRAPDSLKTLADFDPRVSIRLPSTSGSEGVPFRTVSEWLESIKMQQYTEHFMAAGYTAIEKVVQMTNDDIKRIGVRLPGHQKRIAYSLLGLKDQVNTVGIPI

Sequence of Platelet-derived growth factor receptor alpha (Homo sapiens) (P16234 whole entry): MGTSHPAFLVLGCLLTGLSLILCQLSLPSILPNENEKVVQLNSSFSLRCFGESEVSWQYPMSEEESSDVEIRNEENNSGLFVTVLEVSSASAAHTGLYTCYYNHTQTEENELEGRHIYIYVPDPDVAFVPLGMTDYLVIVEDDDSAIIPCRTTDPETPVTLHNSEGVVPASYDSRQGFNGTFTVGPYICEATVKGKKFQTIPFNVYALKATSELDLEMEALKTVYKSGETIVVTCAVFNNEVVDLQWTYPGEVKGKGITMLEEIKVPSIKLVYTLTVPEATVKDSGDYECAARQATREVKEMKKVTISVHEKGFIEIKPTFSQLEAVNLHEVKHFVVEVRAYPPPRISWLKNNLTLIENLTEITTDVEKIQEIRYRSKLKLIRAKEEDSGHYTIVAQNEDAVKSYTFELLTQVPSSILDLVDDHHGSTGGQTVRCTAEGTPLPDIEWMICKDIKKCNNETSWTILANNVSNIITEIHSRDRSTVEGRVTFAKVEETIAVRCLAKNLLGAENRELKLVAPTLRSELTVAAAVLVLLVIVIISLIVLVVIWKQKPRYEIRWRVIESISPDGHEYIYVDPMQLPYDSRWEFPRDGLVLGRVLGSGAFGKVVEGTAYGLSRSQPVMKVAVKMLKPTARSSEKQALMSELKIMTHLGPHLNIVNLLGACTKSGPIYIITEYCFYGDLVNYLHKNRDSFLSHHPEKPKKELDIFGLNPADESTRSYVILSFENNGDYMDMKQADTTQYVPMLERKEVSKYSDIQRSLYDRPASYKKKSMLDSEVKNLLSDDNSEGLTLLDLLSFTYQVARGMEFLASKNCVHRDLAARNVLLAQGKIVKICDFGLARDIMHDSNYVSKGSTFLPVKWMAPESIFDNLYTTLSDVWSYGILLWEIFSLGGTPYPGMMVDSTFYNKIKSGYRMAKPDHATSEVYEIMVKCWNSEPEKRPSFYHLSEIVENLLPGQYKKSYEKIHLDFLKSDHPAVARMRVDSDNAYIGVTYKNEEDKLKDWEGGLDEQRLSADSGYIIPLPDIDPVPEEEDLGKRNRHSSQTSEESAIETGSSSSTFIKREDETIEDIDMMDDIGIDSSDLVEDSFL

In general, inhibition refers to the share of the control response that was lost under treatment. With `O=C(N[C@@H](C1CC1)C(F)(F)F)c1cc(-c2cnn3cc(-c4ccc(F)cc4)cnc23)cs1`, the inhibition was found to be 0% in [1], 78% in assay [2] and 0% in assay [3]. In [4], the fold change (FC) came to 0.01.

With `CNC(=O)c1ccccc1Oc1nc(Nc2cc(OC)c(OC)c(OC)c2)ncc1Br`, the inhibition was 19% in assay [5] and 36% in assay [8]. The fold change (FC) came to 0.19 in assay [6], 0.05 in [7] and 0.07 in [9].

Turning to `CC(C)[C@H](NC(=O)c1cc(-c2cnn3cc(-c4ccc(OCCN5CCCCC5)cc4)cnc23)cs1)C(F)(F)F`, the fold change (FC) in [10] and in assay [11] was 0 each time.
